Results: PMC6629785, “Synthesis and Pharmacological Evaluation of a Novel Peptide Based on Anemonia sulcata BDS-I Toxin as a New KV3.4 Inhibitor Exerting a Neuroprotective Effect Against Amyloid-β Peptide” (Frontiers in Chemistry, 2019)
Ends that are not written are not given here.

Target: T1, KV3.4 channels (Homo sapiens, UniProt Q03721)
T1 construct: expressed in transfected cells; host or cells: CHO cells, transient transfection with Lipofectamine 2000; cDNAs provided by Professor Goldstein, University of Chicago
T1 sequence (Q03721 1-635): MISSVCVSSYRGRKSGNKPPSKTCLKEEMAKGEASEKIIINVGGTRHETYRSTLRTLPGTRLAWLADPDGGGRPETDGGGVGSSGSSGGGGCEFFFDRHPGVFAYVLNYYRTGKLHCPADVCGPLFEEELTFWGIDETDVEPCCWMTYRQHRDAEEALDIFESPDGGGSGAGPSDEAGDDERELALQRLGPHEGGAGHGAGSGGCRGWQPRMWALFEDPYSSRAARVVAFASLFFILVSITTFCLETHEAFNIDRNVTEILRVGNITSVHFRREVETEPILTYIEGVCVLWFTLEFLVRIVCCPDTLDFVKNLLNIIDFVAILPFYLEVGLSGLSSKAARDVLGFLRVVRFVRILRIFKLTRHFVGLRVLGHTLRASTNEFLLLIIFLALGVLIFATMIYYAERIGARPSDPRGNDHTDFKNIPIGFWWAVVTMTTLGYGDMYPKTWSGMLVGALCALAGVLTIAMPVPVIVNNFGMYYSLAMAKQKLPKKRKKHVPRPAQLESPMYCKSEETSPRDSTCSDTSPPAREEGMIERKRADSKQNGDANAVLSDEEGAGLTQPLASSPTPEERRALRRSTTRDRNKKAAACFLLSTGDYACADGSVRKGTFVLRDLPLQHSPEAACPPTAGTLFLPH
T1 sequence (Q9Y6H6 1-103 partner): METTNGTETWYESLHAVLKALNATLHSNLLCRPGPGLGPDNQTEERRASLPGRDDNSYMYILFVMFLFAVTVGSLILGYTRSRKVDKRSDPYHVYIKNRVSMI
Experiment: Whole-cell patch clamp of Kv3.4 currents in CHO cells transiently transfected with Kv3.4/MiRP2
Format: cell-based
Conditions: for percentage of inhibition of Kv3.4 currents: acute application in extracellular solution, peak of depolarizing pulse +60 mV, [(C0-C1)/C0] x 100, mean of 6 to 10 cells, three sessions
Method: KV3.4 and MiRP2 channel subunits were expressed in Chinese hamster ovary (CHO) cells by transient transfection. CHO cells were grown in 100 mm plastic Petri dishes in Dulbecco's Modified Eagle Medium containing 10% fetal bovine serum (FBS), non-essential amino acids (0.1 mm), penicillin (50 U/ml), and streptomycin (50 μg/ml) in a humidified atmosphere at 37°C with 5% CO2 (Miceli et al., [2015]). KV3.4 and MiRP2 cDNAs were kindly provided by the Professor Goldstein of the Department of Pediatrics and Institute for Molecular Pediatric Sciences, University of Chicago, USA. For electrophysiological experiments, cells were seeded on glass cover-slips (Glaswarenfabrik Karl Hecht KG, Sondheim, Germany) coated with poly-L-lysine (50 μg/mL) and transfected the next day with the appropriate cDNAs using Lipofectamine 2000 according to guidelines for transfection. We performed electrophysiological experiments 48 h after transfection.
Currents from CHO cells were recorded at room temperature 1-2 days after transfection. The extracellular solution contained the following (in mM): 138 NaCl, 5.4 KCl, 2 CaCl2, 1 MgCl2, 10 glucose and 10 HEPES, adjusted pH 7.4 with NaOH. The pipette solution contained (in mM) the following: 140 KCl, 2 MgCl2, 10 EGTA, 10 HEPES, 5 Mg-ATP, adjusted pH 7.4 with KOH (Miceli et al., [2015]). KV3.4 currents were measured by applying voltage steps from −100 mV to +60 mV from a holding potential of −80 mV (Abbott et al., [2001]). Moreover, the total outward K^+ currents were recorded in NGF-differentiated PC-12 cells using the extracellular solution contained the following (in mM): 150 NaCl, 5.4 KCl, 3 CaCl2, 1 MgCl2, 10 HEPES, adjusted pH 7.4 with NaOH. The pipette solution contained the following (in mM): 140 KCl, 2 MgCl2, 10 HEPES, 10 glucose, 10 EGTA, and 1 Mg-ATP adjusted at pH 7.4 with KOH (Diochot et al., [1998]). All experiments were performed in the presence of 50 nM tetrodotoxin (TTX) and 10 μ M nimodipine in the extracellular solution. To discriminate K^+ current components appropriate electrophysiological protocols were used (Pannaccione et al., [2007]). Steady-state activation and inactivation properties were measured by using appropriate protocols (Pannaccione et al., [2005]). Capacitive currents were elicited by 5-mV depolarizing pulses from −80 mV and acquired at a sampling rate of 50 kHz. The capacitance of the membrane was calculated according to the following equation: Cm = τc·Io/ΔEm (1-I∞/Io), where Cm is membrane capacitance, τc is the time constant of the membrane capacitance, Io is the maximum capacitance current value, ΔEm is the amplitude of the voltage step, and I∞ is the amplitude of the steady-state current. K^+ currents were recorded by patch-clamp technique in CHO and NGF-differentiated PC-12 cells using a commercially available amplifier (Axopatch 200B, Molecular Devices) and Digidata 1322A interface (Molecular Devices, USA). The whole-cell configuration of the patch-clamp technique was adopted using glass micropipettes with a resistance of 2.5-5.0 MΩ. Data were acquired and analyzed using the pClamp software (version 9, Molecular Devices).
For the acute treatment, each peptide has been added in the extracellular solution. For each cell, we first recorded K^+ currents as previously described, in the absence of peptides. After that, we switched from the extracellular solution without BDS-I peptides to the extracellular solution containing the BDS-I peptide. In these conditions, we recorded K^+ currents until the steady-state was reached. This protocol has been performed to test the effect on KV3.4 currents of each BDS-I fragment as well as of BDS-I[1-8scr].
To identify the smallest BDS-I amino acid sequence able to block Kv3.4 activity, we evaluated the effect of the newly synthesized BDS-I fragments in CHO cells transiently transfected with Kv3.4/MiRP2, by patch clamp technique in whole cell configuration. […]

[1] = peptide 100 nM, CHO cells transfected with Kv3.4/MiRP2

H-GSAFAPAA-OH [BDS-I[1-8scr]]
ability to inhibit Kv3.4 currents (in words) (peptide 100 nM, acute application, CHO cells transfected with Kv3.4/MiRP2, whole-cell patch clamp): not able to modify KV3.4 activity

blood depressing substance-I [BDS-I]
percentage of inhibition of Kv3.4 currents [1]: ~ 60%

AAPAFASG [BDS-I[1-8]]
effect on steady-state parameters for activation and inactivation of Kv3.4 currents (100 nM, Boltzmann fit): did not modify | time of peptide exposure at which steady-state of inhibition was reached (100 nM, currents at peak of repetitive (20 sec) depolarizing pulses (+60 mV)): 150 s | voltage dependence of Kv3.4 current inhibition (I-V relationship) (100 nM, peak current before and during application, pulses from +60 to −100 mV): not voltage-dependent | IC50 (CHO cells transiently transfected with KV3.4/MiRP2, inhibitory dose-response curve, % of inhibition normalized to controls): 75 nM | percentage of inhibition of Kv3.4 currents [1]: more than 80%
